We go through 83 molecules from PubChem BioAssay AID2305 (GlaxoSmithKline (GSK), 2010).

The experiment deals with P. falciparum 3D7 growth, pLDH absorbance. Nature of the experiment: P. falciparum 3D7 growth inhibition, dose response, strain 3D7 (AID 2305).

As to `O=C(Nc1cc(Cl)cc(Cl)c1)c1cnn(-c2ccc(F)cc2)c1C1CCNCC1`, the IC50 is 850 nM.
The result for `O=C(Nc1ccc(C(F)(F)F)cc1)c1cc(Br)cnc1NCCCn1ccnc1` reads 970 nM; that for `CCN(CC)C(=NCCCCCCCCN=C(/N=C(/N)Nc1ccc(Cl)cc1)N(CC)CC)/N=C(/N)Nc1ccc(Cl)cc1`, 400 nM.
With `Nc1ccnc2ccc(NC(=O)CCCCCc3ccccc3)cc12`, the IC50 worked out at 860 nM.
The result for `CCN(c1ccccc1)S(=O)(=O)c1ccc(OC)c(NC(=O)c2cccc(C(F)(F)F)c2)c1` reads 880 nM; that for `Cc1cc2ncn(-c3ccnc(N4CCN(CCCN5CCCC5)CC4)n3)c2cc1C`, 830 nM.
Molecule `O=C1C(c2ccccc2)=C(Nc2cccc([N+](=O)[O-])c2)c2ccccc21` showed an IC50 of 890 nM.
Molecule `Cc1ccc(S(=O)(=O)N2CCCN(C(=O)c3cc(-c4ccccc4)n[nH]3)CC2)cc1` showed an IC50 of 80 nM.
Molecule `O=C(NCC1CCN(Cc2ccc3c(c2)OCCO3)C1)c1cc(-c2cccc(C(F)(F)F)c2)cs1` (stereo not drawn) registered an IC50 of 980 nM.
In the case of `COc1ccccc1C1CCN(C2CCC(NC(=O)/C=C/c3cc(F)cc(F)c3)CC2)CC1` (stereo not drawn) it was 1110 nM.
Take `CC(CCc1ccccc1)NCC(O)c1ccc2c3c(cccc13)S(=O)(=O)N2C` (stereo not drawn): the IC50 turned out to be 630 nM.
In the case of `Oc1ccc2[nH]c(-c3ccc(OC(F)(F)F)cc3)nc2c1CNC1CCCC1`, the IC50 amounted to 1750 nM.
The result for `O=C(/C=C/c1ccc(Cl)c(Cl)c1)NCCCCCN1CCC(NC(=O)Nc2ccc(OC(F)F)cc2)CC1` reads 750 nM; that for `COc1ccc2nccc([C@@H](O)CN3CCC(NCc4cnc5snnc5c4)C(F)C3)c2c1` (stereo partly drawn), 1350 nM.
In turn, `O=C(NCC(CCN1CCC(c2c[nH]c3ccccc23)CC1)c1ccccc1)Nc1ccc(Cl)c(Cl)c1` (stereo not drawn) had an IC50 of 830 nM.
`CCCCC(=O)N(CCOC)Cc1ccc(-c2ccc(CNCCC)cn2)cc1` showed an IC50 of 730 nM.
`O=C(/C=C/c1cc(F)c(F)cc1F)N1CCC(CN2CCC(c3c[nH]c4ccccc34)CC2)CC1` showed an IC50 of 1000 nM.
`Cc1ccc(CCC(C)NCC(O)c2cccc(Cl)c2)cc1` (stereo not drawn): the IC50 came to 800 nM.
`Nc1cccc(CNCc2cccc(-c3csc(-c4nc5ccccc5[nH]4)c3)c2)c1` gave an IC50 of 680 nM.
The molecule `CCN1CCN(CCCNc2c3ccc(Cl)cc3nc3ccc(O)cc23)CC1` showed an IC50 of 570 nM.
The molecule `C=C[C@H]1CN2CC[C@H]1C[C@H]2[C@H](O)c1ccnc2ccccc12` registered an IC50 of 170 nM.
The result for `COc1cc2nc(N3CCC(CNC(=O)c4ccc(-c5ccc(-c6noc(C)n6)cc5C)cc4)CC3)nc(N)c2cc1OC` reads 220 nM.
The molecule `C[C@@H](Oc1cc(-n2cnc3ccc(NC(=O)CCN4CCCCC4)cc32)sc1C(N)=O)c1ccccc1Cl` displayed an IC50 of 990 nM.
Turning to `O=C(Nc1cccc(-c2csc(-c3nc4ccccc4[nH]3)c2)c1)c1ccncc1`, the IC50 was 260 nM.
In the case of `Nc1cccc(CNCc2cccc(-c3ccc(-c4nc5ccc(C(F)(F)F)cc5[nH]4)cc3)c2)c1` it was 360 nM; in that of `Cc1ccc([C@@H]2CC(=O)CC(c3ccccn3)[C@H]2[N+](=O)[O-])cc1` (stereo partly drawn), 860 nM; in that of `Cc1cccc2[nH]c(-c3cccc(-c4cccc(NC(=O)c5cccnc5Cl)c4)c3)nc12`, 710 nM.
In the case of `CC(C)c1ccc(CN2CCC(CNC(=O)c3cc(-c4ccc(N(C)C)cc4)cs3)C2)cc1` (stereo not drawn) it was 1250 nM.
In the case of `CC[C@H]1CN2CC[C@H]1C[C@H]2[C@H](O)c1cc(-c2cccc(F)c2)nc2ccc(OC)cc12` it was 60 nM.
`O=C(NC1CCC(CN2CCC(c3c[nH]c4ccccc34)CC2)CC1)c1[nH]c(=O)[nH]c(=O)c1F` (stereo not drawn) gave an IC50 of 800 nM.
The result for `O=C(NCCN1CCCCC1)c1ccc(CNC(=O)c2ccc(O)c(-c3ccc(Cl)c(Cl)c3)c2)cc1` reads 900 nM.
As to `CNC(=O)c1cnc(Nc2ccc(OCC(O)CN(C)C)cc2)nc1Nc1cccc(Br)c1` (stereo not drawn), the IC50 came out at 120 nM.
The result for `Cc1[nH]c2cc(Cl)ccc2c1C1=CCN(CCCCC2(C)C(=O)Nc3ccccc32)CC1` (stereo not drawn) reads 330 nM; that for `Nc1nc(N)c2cc(N(Cc3ccccc3)Cc3ccccc3)ccc2n1`, 610 nM.
The result for `CN(C)c1cc(NN=Cc2cc(Cl)ccc2O)nc(N(C)C)n1` reads 700 nM.
For `CC[C@H]1CN2CC[C@H]1C[C@H]2[C@H](O)c1cc(-c2ccc(OC(F)(F)F)cc2)nc2ccc(OC)cc12`, the IC50 worked out at 50 nM.
In turn, `CCNc1cc(C(=O)N[C@@H](Cc2ccccc2)[C@H](O)CNC2CCCCC2)cc(N2CCCCS2(=O)=O)c1` had an IC50 of 170 nM.
With `O=C(NCc1ccc(C(=O)NC2CCCCCC2)cc1)c1ccc(O)c(-c2ccc(Cl)c(Cl)c2)c1`, the IC50 stood at 1060 nM.
`O=C(CCc1cccnc1)Nc1ccc(-c2cccc(-c3nc4ccc(F)cc4[nH]3)c2)cc1` returned an IC50 of 920 nM.
Consider `C/C=C/C=C/C1=NCCc2cc(OCCC)ccc21`, for which the IC50 was determined as 910 nM.
For `Oc1ccc(CN2CCN(CCOC(c3ccccc3)c3ccc(Cl)cc3)CC2)cc1Cl` (stereo not drawn), the IC50 turned out to be 860 nM.
The result for `Cc1cccc2[nH]c(-c3ccc(-c4cccc(CN5CC(C)OC(C)C5)c4)s3)nc12` (stereo not drawn) reads 760 nM; that for `O=C(c1ccc(-c2cnc3[nH]cc(-c4ccc(C(=O)N5CCOCC5)cc4)c3c2)cc1)N1CCOCC1`, 1000 nM; that for `CS(=O)(=O)NCCCNCc1ccc(-c2ccc(-c3nc4ccc(F)cc4[nH]3)cc2)cc1`, 930 nM.
In the case of `O=S(=O)(NCCN1CCCC1)c1ccc(-c2ccc(CNCc3ccsc3)cc2)cc1F` it was 810 nM.
In the case of `CNC(=O)Cc1ccc(C(=O)Nc2cccc(-c3ccc(-c4nc5c(C)cccc5[nH]4)s3)c2)cc1` it was 630 nM; in that of `O=C(Nc1ccc(Oc2ccc(OC(F)(F)F)cc2)cc1)c1ccco1`, 1130 nM; in that of `Cc1ccc(O)cc1Nc1ccnc2cc(-c3ccc(CN4CCCCC4)o3)ccc12`, 170 nM.
`N#Cc1ccc(N(CC(=O)NCCc2ccc(F)cc2)CC2CC2)c2ccccc12`: the IC50 was 930 nM.
In the case of `Nc1cccc(CNCc2ccc(-c3ccc(-c4nc5ccccc5[nH]4)s3)cc2)c1` it was 570 nM.
`O=C(Nc1cccc(CN2CCCN(Cc3ccc(O)cc3)CC2)c1)c1cc(F)cc(F)c1` showed an IC50 of 660 nM.
In the case of `O=C(N[C@@H](Cc1ccccc1)C(=O)NCc1cccc2ccccc12)c1ccc(O)c(-c2ccc(Cl)c(Cl)c2)c1` it was 240 nM; in that of `O=C(NCc1ccc(C(=O)NC2CCCCC2)cc1)c1ccc(O)c(-c2ccc(Cl)c(Cl)c2)c1`, 880 nM; in that of `COc1ccc(CCNc2nc(SCc3ccccc3Cl)nc3ccccc23)cc1OC`, 940 nM.
`COc1cccc(CN2CCC(C(=O)Nc3ccc(-c4nc5ccccc5[nH]4)cc3)CC2)c1` gave an IC50 of 630 nM.
As to `Cc1c(CC(=O)N(C)C2CCN(CCCCCNC(=O)/C=C/c3ccc(Cl)c(Cl)c3)CC2)sc2ccc(Cl)cc12`, the IC50 turned out to be 1160 nM.
Turning to `Cc1ccc(CN2CCN(c3cc4c(cc3Cl)CCN4C(=O)Cc3ccc(NC(=O)c4ccc(C(F)(F)F)cc4)cc3)CC2)cc1`, the IC50 stood at 940 nM.
`O=C(NCCCCCN1CCC(c2c[nH]c3ccccc23)CC1)Nc1cccc(C(F)(F)F)c1` returned an IC50 of 1000 nM.
As for `COc1cc(C2C(Oc3ccccc3)C(=O)N2Cc2ccc(F)cc2)cc(OC)c1OC` (stereo not drawn), the IC50 was determined as 960 nM.
`O=S(=O)(NC1=NCCC1)c1cccc(Nc2nc(C(F)(F)F)nc3ccccc23)c1` displayed an IC50 of 950 nM.
The molecule `CC(=O)c1ccc2cc(C(=O)NC3CCC(CCN4CCc5ccc(-c6noc(C)n6)cc5CC4)CC3)[nH]c2c1` (stereo not drawn) returned an IC50 of 950 nM.
Molecule `NCc1ccc(CNCc2ccc(-c3ccc(-c4nc5ccc(C(F)(F)F)cc5[nH]4)s3)cc2)cc1` gave an IC50 of 160 nM.
With `NC(=O)COc1c(C2CCN(CCN3CCC(CNC(=O)c4ccc(-c5ccc(C(F)(F)F)cc5)cc4)CC3)CC2)ccc2c1CCCC2`, the IC50 is 970 nM.
The result for `NC(=O)c1ccccc1Nc1nc(Nc2ccc(N3CCOCC3)cc2)ncc1[N+](=O)[O-]` reads 880 nM.
With `N#Cc1ccc(/C=C/C(=O)NCCCCCN2CCN(C(=O)Nc3ccc(Cl)c(C(F)(F)F)c3)CC2)cc1`, the IC50 stood at 780 nM.
In the case of `COc1ccc(C(=O)NCc2ccc(N)nc2C)cc1Nc1ncc(-c2cccc(N(C)C)c2)cn1` it was 900 nM.
`CCNc1cc(C(=O)N[C@@H](Cc2ccccc2)[C@H](O)CNCc2cccc(OC)c2C)cc(N2CCCCS2(=O)=O)c1` came in with an IC50 of 520 nM.
The result for `COC(=O)Cn1c(C2CCN(CC3CCN(C(=O)/C=C/c4ccc(Cl)c(Cl)c4)CC3)CC2)nc2ccccc21` reads 1200 nM.
In the case of `O=C(/C=C/c1cc(F)cc(C(F)(F)F)c1)N1CCC(CN2CCC(c3c[nH]c4ccccc34)CC2)CC1` it was 760 nM; in that of `CCN(CC)CCn1c2ccccc2c2ccc(C(=O)Nc3ccc4sc(C)nc4c3)cc21`, 1060 nM.
In turn, `CC(=O)Oc1cc(C(=O)Nc2ccc(Cl)cc2)cc2ccccc12` came in with an IC50 of 860 nM.
`CC(=O)Nc1ncc(C(=O)Nc2cccc(-c3cccc(-c4nc5c(C)cccc5[nH]4)c3)c2)s1` came in with an IC50 of 350 nM.
In the case of `O=C(NCCCCN1CCC(c2ccc3c(c2OCCO)CCCC3)CC1)c1sc(-c2ccc(C(F)(F)F)cc2)nc1CO` it was 1050 nM; in that of `CC(C)CCCC(C)(C)NC[C@@H](O)[C@H](Cc1ccccc1)NC(=O)c1cccc(CCC2CC2)c1`, 800 nM.
The result for `COc1ccc2nccc([C@@H](O)CN3CCC(NCc4ccc5c(c4)sc(=O)n5C)CC3)c2c1` reads 260 nM; that for `O=C(/C=C/c1ccc(Cl)c(Cl)c1)NCCCCCN1CCC(C(=O)Nc2ccc(Cl)cc2)CC1`, 780 nM.
The result for `O=C(Nc1cc(Oc2ccc(O)cc2)cc([N+](=O)[O-])c1)c1cc(-c2ccc(F)cc2)no1` reads 960 nM; that for `O=C(Nc1ccsc1C(=O)NC1CCCCC1)c1ccc(F)cc1`, 1210 nM; that for `CCOC(=O)c1ccc2nc(-c3ccc(C(=O)NCc4ccc(C(C)(C)C)cc4)cc3)[nH]c2c1`, 850 nM.
Consider `Fc1ccc2nc(-c3cccc(-c4cccc(CN5CCN(c6ccncc6)CC5)c4)c3)[nH]c2c1`, for which the 50% inhibitory concentration (IC50) is 150 nM.
In the case of `O=C(CN1CCN(S(=O)(=O)C=Cc2ccccc2)CC1)Nc1cc(C(F)(F)F)ccc1Cl`, the IC50 was found to be 780 nM.
The result for `CCCCc1ccc(-c2nc(NC(=O)Nc3nc(-c4ccccc4)[nH]c3C(=O)OCC)c(C(=O)OCC)[nH]2)cc1` reads 750 nM; that for `Nc1nc2c(cnn2CCCCCCCP(=O)(O)O)c(=O)[nH]1`, 470 nM.
